One data set deals with Puccinia recondita. Description: Puccinia test (wheat) / protective. In kind it is in vivo. The note with it: 240 h, read-out: efficacy. Here is the method: (§1) To produce a suitable preparation of active compound, 1 part by weight of active compound is mixed with the stated amounts of solvent and emulsifier, and the concentrate is diluted with water to the desired concentration.
To test for protective activity, young plants are sprayed with the active compound preparation at the stated application rate. After the spray coating has dried on, the plants are sprayed with a conidia suspension of Puccinia recondita. The plants remain in an incubation cabin at 20° C. and 100% relative atmospheric humidity for 48 hours.
The plants are then placed in a greenhouse at a temperature of about 20° C. and a relative atmospheric humidity of 80% to promote the development of rust pustules.
(§2) Evaluation is carried out 10 days after the inoculation. 0% means an efficacy which corresponds to that of the control, whereas an efficacy of 100% means that no infection is observed.

A further data set deals with Podosphaera leucotricha. In words: Podosphaera test (apple) / protective. The class given is in vivo. The settings on record: 240 h, read-out: efficacy. Here is the method: as §1
To test for protective activity, young plants are sprayed with the active compound preparation at the stated application rate. After the spray coating has dried on, the plants are inoculated with an aqueous spore suspension of the apple mildew pathogen Podosphaera leucotricha. The plants are then placed in a greenhouse at about 23° C. and a relative atmospheric humidity of about 70%.
as §2

In a further data set the test system is Sphaerotheca fuliginea. Description: Sphaerotheca test (cucumber) / protective. The class given is in vivo. The note with it: Podosphaera fuliginea, 168 h, read-out: efficacy. The procedure: as §1
To test for protective activity, young plants are sprayed with the active compound preparation at the stated application rate. After the spray coating has dried, the plants are inoculated with an aqueous spore suspension of Sphaerotheca fuliginea. The plants are then placed in a greenhouse at about 23° C. and a relative atmospheric humidity of about 70%.
Evaluation is carried out 7 days after the inoculation. 0% means an efficacy which corresponds to that of the control, whereas an efficacy of 100% means that no infection is observed.

In a further data set the test system is Botrytis cinerea. In words: Botrytis test (bean) / protective. The note with it: 48 h, read-out: efficacy. The class given is in vivo. Here is the method: as §1
To test for protective activity, young plants are sprayed with the active compound preparation at the stated application rate. After the spray coating has dried on, 2 small pieces of agar overgrown with Botrytis cinerea are placed on each leaf. The inoculated plants are then placed in a darkened chamber at about 20° C. and 100% relative atmospheric humidity.
Two days after the inoculation the size of the infected spots on the leaves is evaluated. 0% means an efficacy which corresponds to that of the control, whereas an efficacy of 100% means that no infection is observed.

The results in this text go back to patent US8299302B2 (priority 2007, dated 2012).

Like-named read-outs stand apart in the source and are kept apart here. Some results are limits rather than exact numbers.

Broadly, the logP is the decadic logarithm of the partition coefficient of the neutral form, usually between octanol and water. Read a low logP as lower lipophilicity. Regarding `Cc1cc(Oc2ccc(C3CCCC3)cc2)c(C)cc1/N=C/N1CCCCC1C` (stereo not drawn) [Compound 34, 4-(4-cyclopentylphenoxy)-2,5-dimethyl-N-[(1E)-(2-methylpiperidin-1-yl)methylene]aniline], the pest or weed control at 1000 ppm in the data set with Puccinia recondita (wheat plants, protective spray, active compound concentration 1000 ppm, evaluation 10 days after inoculation) was at least 70%. For the same compound, in the data set “logP (acidic, pH 2.3)” (pH 2.3, logP acidic, acidic), the lipophilicity (logP) came to 3.22.
Regarding `CC(=O)c1ccccc1-c1ccc(Oc2cc(C)c(/N=C/N3CCCCC3)cc2C)cc1` [Compound 22], the pest or weed control at 100 ppm in the data set on Podosphaera leucotricha and in the data set with Sphaerotheca fuliginea was at least 70% throughout. The pest or weed control at 250 ppm in the data set on Botrytis cinerea is at least 70%. Moreover, the lipophilicity (logP) in the data set “logP (acidic, pH 2.3)” (pH 2.3) is 3.52.
On to `CCN(C)C=Nc1cc(C)c(Oc2ccc(-c3ccccc3C(F)(F)F)cc2)cc1C` [Compound 14], for which the pest or weed control at 100 ppm with Podosphaera leucotricha and in the data set with Sphaerotheca fuliginea was at least 70% throughout. Besides, the pest or weed control at 250 ppm with Botrytis cinerea was at least 70%. For the same compound, the pest or weed control at 1000 ppm in the data set with Puccinia recondita was at least 70%. Further, the logP in the data set “logP (acidic, pH 2.3)” (pH 2.3) was 2.77.
As for `CCN(C)C=Nc1cc(C)c(Oc2ccc(-c3ccccc3OCC(C)C)cc2)cc1C` [Compound 29, N-ethyl-N′-{4-[(2′-isobutoxybiphenyl-4-yl)oxy]-2,5-dimethylphenyl}-N-methylimidoformamide], the logP in the data set “logP (acidic, pH 2.3)” (pH 2.3, logP acidic, acidic) is 3.14.
Still for that read-out and setting: in the case of `Cc1cc(Oc2ccc(C3CCCCC3)cc2)c(C)cc1N=CN(C)C(C)C` [Compound 39, N′-{4-[4-cyclohexyl-phenoxy]-2,5-dimethylphenyl}-N-isopropyl-N-methylimidoformamide] it was 3.2.
On to “4-[(4′-fluorobiphenyl-4-yl)oxy]-2,5-dimethyl-N-[(1E)-pyrrolidin-1-ylmethylene]aniline [Compound 30]”, for which the logP acidic in the data set “logP (acidic, pH 2.3)” (acidic) is reported as 2.62.
In the case of `COc1ccc(-c2ccc(Oc3cc(C)c(N)cc3C)cc2)cc1` [4-[4-(4-Methoxyphenyl)phenoxy]-2,5-dimethylaniline], the log partition coefficient (logP) in the data set “logP (acidic, pH 2.3)” (pH 2.3, log P (pH 2.3), pH 2.3) stood at 3.06.
`CCN(C)C=Nc1cc(C)c(Oc2ccc(-c3ccccc3)cc2)cc1C` [Compound 31, N′-[4-(biphenyl-4-yloxy)-2,5-dimethylphenyl]-N-ethyl-N-methylimidoformamide]: the logP in the data set “logP (acidic, pH 2.3)” (pH 2.3, logP acidic, acidic) turned out to be 2.64.
Same read-out and setting: in the case of `Cc1cc(Oc2ccc(-c3ccccc3OCC(C)C)cc2)c(C)cc1/N=C/N1CCCCC1` [Compound 28, 4-[(2′-isobutoxybiphenyl-4-yl)oxy]-2,5-dimethyl-N-[(1E)-piperidin-1-ylmethylene]aniline] it was 3.44.
With `CCCCO/N=C/c1ccc(-c2ccc(Oc3cc(C)c(N=CN(C)CC)cc3C)cc2)cc1` [Compound 10], the logP in “logP (acidic, pH 2.3)” (pH 2.3) was found to be 3.51.
`Cc1cc(Oc2ccc(-c3ccccc3F)cc2)c(C)cc1/N=C/N1CCCCC1` [Compound 21]: in the data set on Puccinia recondita, the pest or weed control at 1000 ppm is at least 70%. In “logP (acidic, pH 2.3)” (pH 2.3), this compound showed a lipophilicity (logP) of 2.98.
In the case of `CCN(C)C=Nc1cc(C)c(Oc2ccc(-c3ccccc3C(C)C)cc2)cc1C` [Compound 15], the pest or weed control at 100 ppm in the data set on Podosphaera leucotricha and in the data set with Sphaerotheca fuliginea was at least 70% each time. Further, in the data set with Botrytis cinerea, the pest or weed control at 250 ppm was at least 70%. For the same compound, the pest or weed control at 1000 ppm with Puccinia recondita is at least 70%. The same compound came in with a logP in the data set “logP (acidic, pH 2.3)” (pH 2.3) of 3.06.
`CCN(C)C=Nc1cc(C)c(Oc2ccc(-c3ccc(/C=N/OC)cc3)cc2)cc1C` [Compound 12] yielded a lipophilicity (logP) in “logP (acidic, pH 2.3)” (pH 2.3) of 2.75.
With `Cc1cc(Oc2ccc(C3CCCCC3)cc2)c(C)cc1N` [4-(4-Cyclohexylphenoxy)-2,5-dimethylaniline], the log partition coefficient (logP) in “logP (acidic, pH 2.3)” (pH 2.3, log P (pH 2.3), pH 2.3) was 4.25.
Take `CCN(C)C=Nc1cc(C)c(Oc2ccc(-c3ccc(C(C)(C)C)cc3)cc2)cc1C` [Compound 7, N′-(2,5-dimethyl-4-{[4′-(tert-butyl)biphenyl-4-yl]oxy}phenyl)-N-ethyl-N-methylimidoformamide]: the pest or weed control at 100 ppm in the data set on Podosphaera leucotricha (apple plants, protective spray, active compound concentration 100 ppm, evaluation 10 days after inoculation) was at least 70%; with Sphaerotheca fuliginea (cucumber plants, protective spray, active compound concentration 100 ppm, evaluation 7 days after inoculation), at least 70%. For the same compound, in the data set with Botrytis cinerea (bean plants, protective spray, active compound concentration 250 ppm, evaluation two days after inoculation), the pest or weed control at 250 ppm is at least 70%. Further, the log partition coefficient (logP) in the data set “logP (acidic, pH 2.3)” (pH 2.3, logP acidic, acidic) was determined as 3.41.
The compound `Cc1cc(Oc2ccc(Br)cc2)c(C)cc1N` [4-(4-Bromophenoxy)-2,5-dimethylaniline] gave a logP in “logP (acidic, pH 2.3)” (pH 2.3, log P (pH 2.3), pH 2.3) of 2.88.
As for `CCN(C)C=Nc1cc(C)c(Oc2ccc(-c3ccc(N(C)C)cc3)cc2)cc1C` [Compound 4, N′-(4-{[4′-(dimethylamino)biphenyl-4-yl]oxy}-2,5-dimethylphenyl)-N-ethyl-N-methylimidoformamide], in “logP (acidic, pH 2.3)” (pH 2.3, logP acidic, acidic), the logP came out at 2.13.
